Laboratory results from patent US20210253562A1, “ACYLSUFONAMIDE COMPOUNDS USEFUL AS EP3 RECEPTOR ANTAGONISTS” (Janssen Pharmaceutica NV, priority 2018, published 2021).

Molecular target: T1, EP3 membrane (EP3 receptor) (Homo sapiens, UniProt P43115)
T1 construct: purchased Millipore HTS092M
T1 sequence (P43115 1-390): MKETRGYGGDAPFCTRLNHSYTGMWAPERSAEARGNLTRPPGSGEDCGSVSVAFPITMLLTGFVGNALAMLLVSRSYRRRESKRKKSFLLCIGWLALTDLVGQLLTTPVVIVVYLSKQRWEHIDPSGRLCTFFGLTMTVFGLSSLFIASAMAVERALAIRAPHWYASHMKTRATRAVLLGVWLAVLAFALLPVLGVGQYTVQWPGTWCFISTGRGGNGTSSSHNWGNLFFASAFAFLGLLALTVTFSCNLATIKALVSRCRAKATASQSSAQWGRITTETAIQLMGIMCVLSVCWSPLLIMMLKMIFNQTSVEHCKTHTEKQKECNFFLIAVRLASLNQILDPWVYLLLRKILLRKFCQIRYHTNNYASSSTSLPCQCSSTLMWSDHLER
Assay: [3H]-PGE2 binding; EP3 competition binding (SPA)
Conditions: not given
Description: Biological Example 1: [3H]-PGE2 Binding
EP3 competition binding was determined using the following materials and experimental conditions: • Beads=Perkin Elmer RPNQ0001 • [3H]PGE2=Perkin Elmer NET428025UC • 384-well plate=Perkin Elmer 6007290 • EP3 membrane=Millipore HTS092M • Membrane concentration=2 μg/well • Beads concentration=0.25 mg/well • [3H]-PGE2=2 nM; DMSO—0.1% • Binding buffer=50 mM Tris, 10 mM MgCl2, 1 mM EDTA, PH 7.4.
The reaction system was prepared by mixing 5 μl of unlabeled compound; 5 μl of diluted [3H]-PGE2; 5 μl of diluted membrane; and 15 μl of SPA beads dissolved in binding buffer (adding in the following sequence: Unlabeled compound, [3H]-PGE2, Membrane and Beads).
The binding buffer was removed from refrigeration (@ 4° C.) and allowed to warm to room temperature. Test compound (@ stock concentration of […] in DMSO) was serial dilutes (1:3) with 100% DMSO using Echo plate. Diluted test compound (30 nL) was dispensed to the 384-well assay plate (using Echo 550 Labcyte System). To each well was then added assay buffer (5 μl) and each well was spun. Beads were weighed out, dissolved in assay buffer to a concentration of 0.25 mg/15 μl. Original membrane was diluted with assay buffer to a concentration of 2 μg/5 μl. Original [3H]-PGE2 with diluted with assay buffer to a concentration of 12 nM. To each test well were then added diluted [3H]-PGE2 (5 μl), diluted membrane (5 μl), and dissolved beads (15 μl). The plate was equilibrated at room temperature on a plate shaker for 2 hours and then read with a TOPCOUNT scintillation plate reader. Results were analyzed using a Prism program with non-linear regression, one-site fit for Ki.

Row | Ki [nM] | SMILES
1 | 59 | CC(C)n1cc(S(=O)(=O)NC(=O)NC/C=C2\CCCc3cnn(Cc4ccc(Cl)cc4Cl)c32)cn1 [Compound #173, (E)-N-((2-(1-(2,4-dichlorobenzyl)-1,4,5,6-tetrahydro-7H-indazol-7-ylidene)ethyl)carbamoyl)-1-isopropyl-1H-pyrazole-4-sulfonamide]
2 | 149 | COc1ccc(S(=O)(=O)NC(=O)NC/C(F)=C2\CCCc3cnn(Cc4ccc(Cl)cc4Cl)c32)cc1OC [Compound #174, (Z)—N-((2-(1-(2,4-dichlorobenzyl)-1,4,5,6-tetrahydro-7H-indazol-7-ylidene)-2-fluoroethyl)carbamoyl)-3,4-dimethoxybenzenesulfonamide]
3 | 16 | COc1cc(S(=O)(=O)NC(=O)NC/C(F)=C2\CCCc3cnn(Cc4ccc(Cl)cc4Cl)c32)ccc1Cl [Compound #175, (Z)-4-Chloro-N-((2-(1-(2,4-dichlorobenzyl)-1,4,5,6-tetrahydro-7H-indazol-7-ylidene)-2-fluoroethyl)carbamoyl)-3-methoxybenzenesulfonamide]
4 | 1 | O=C(NC/C=C1\CCCc2cnn(Cc3ccc(Cl)cc3Cl)c21)NS(=O)(=O)c1ccc2[nH]c(=O)oc2c1 [Compound #176, (E)-N-((2-(1-(2,4-dichlorobenzyl)-1,4,5,6-tetrahydro-7H-indazol-7-ylidene)ethyl)carbamoyl)-2-oxo-2,3-dihydrobenzo[d]oxazole-6-sulfonamide]
5 | 1 | COc1nc2ccc(S(=O)(=O)NC(=O)NC/C=C3\CCCc4cnn(Cc5ccc(Cl)cc5Cl)c43)cc2o1 [Compound #177, (E)-N-((2-(1-(2,4-dichlorobenzyl)-1,4,5,6-tetrahydro-7H-indazol-7-ylidene)ethyl)carbamoyl)-2-methoxybenzo[d]oxazole-6-sulfonamide]
6 | 6 | COc1nc2ccc(S(=O)(=O)NC(=O)NC/C(F)=C3\CCCc4cnn(Cc5ccc(Cl)cc5Cl)c43)cc2o1 [Compound #178, (Z)—N-((2-(1-(2,4-dichlorobenzyl)-1,4,5,6-tetrahydro-7H-indazol-7-ylidene)-2-fluoroethyl)carbamoyl)-2-methoxybenzo[d]oxazole-6-sulfonamide]
7 | 164 | Cc1nn(C)cc1S(=O)(=O)NC(=O)NC/C(F)=C1\CCCc2cnn(Cc3ccc(Cl)cc3Cl)c21 [Compound #180, (Z)—N-((2-(1-(2,4-dichlorobenzyl)-1,4,5,6-tetrahydro-7H-indazol-7-ylidene)-2-fluoroethyl)carbamoyl)-1,3-dimethyl-1H-pyrazole-4-sulfonamide]
8 | 6 | Cc1cc(S(=O)(=O)NC(=O)NC/C(F)=C2\CCCc3onc(Cc4ccc(Cl)cc4Cl)c32)sc1Cl [Compound #181, (Z)-5-chloro-N-((2-(3-(2,4-dichlorobenzyl)-6,7-dihydrobenzo[d]isoxazol-4(5H)-ylidene)-2-fluoroethyl)carbamoyl)-4-methylthiophene-2-sulfonamide]
9 | 153 | CC(=O)Nc1nc(C)c(S(=O)(=O)NC(=O)NC/C(F)=C2\CCCc3cnn(Cc4ccc(Cl)cc4Cl)c32)s1 [Compound #182, (Z)—N-(5-(N-((2-(1-(2,4-dichlorobenzyl)-1,4,5,6-tetrahydro-7H-indazol-7-ylidene)-2-fluoroethyl)carbamoyl)sulfamoyl)-4-methylthiazol-2-yl)acetamide]
10 | 218 | Cc1nc2cc(S(=O)(=O)NC(=O)NC/C(F)=C3\CCCc4cnn(Cc5ccc(Cl)cc5Cl)c43)ccc2o1 [Compound #183, (Z)—N-((2-(1-(2,4-dichlorobenzyl)-1,4,5,6-tetrahydro-7H-indazol-7-ylidene)-2-fluoroethyl)carbamoyl)-2-methylbenzo[d]oxazole-5-sulfonamide]
11 | 14 | Cc1nn(C)cc1S(=O)(=O)NC(=O)NC/C=C1\CCCc2cnn(Cc3ccc(Cl)cc3Cl)c21 [Compound #184, (E)-N-((2-(1-(2,4-dichlorobenzyl)-1,4,5,6-tetrahydro-7H-indazol-7-ylidene)ethyl)carbamoyl)-1,3-dimethyl-1H-pyrazole-4-sulfonamide]
12 | 1 | Cc1cc(S(=O)(=O)NC(=O)NC/C=C2\CCCc3cnn(Cc4ccc(Cl)cc4Cl)c32)sc1Cl [Compound #185, (E)-5-chloro-N-((2-(1-(2,4-dichlorobenzyl)-1,4,5,6-tetrahydro-7H-indazol-7-ylidene)ethyl)carbamoyl)-4-methylthiophene-2-sulfonamide]
13 | 30 | Cn1nc(Cc2ccc(Cl)cc2Cl)c2c1COC/C2=C(/F)CNC(=O)NS(=O)(=O)c1cc(Cl)c(Cl)s1 [Compound #186, (E)-4,5-dichloro-N-((2-(3-(2,4-dichlorobenzyl)-1-methyl-1,7-dihydropyrano[3,4-c]pyrazol-4(5H)-ylidene)-2-fluoroethyl)carbamoyl)thiophene-2-sulfonamide]
14 | 1 | Cc1cc(S(=O)(=O)NC(=O)NC/C(F)=C2\CCCc3[nH]nc(Cc4ccc(Cl)cc4Cl)c32)sc1Cl [Compound #187, (Z)-5-chloro-N-((2-(3-(2,4-dichlorobenzyl)-1,5,6,7-tetrahydro-4H-indazol-4-ylidene)-2-fluoroethyl)carbamoyl)-4-methylthiophene-2-sulfonamide]
15 | 8 | Cc1cc(Cl)ccc1Cc1nnn2c1/C(=C(\F)CNC(=O)NS(=O)(=O)c1cc(C)c(Cl)s1)CCC2 [Compound #188, (Z)-5-chloro-N-((2-(3-(4-chloro-2-methylbenzyl)-6,7-dihydro-[1,2,3]triazolo[1,5-a]pyridin-4(5H)-ylidene)-2-fluoroethyl)carbamoyl)-4-methylthiophene-2-sulfonamide]
16 | 1 | Cn1nc2c(c1Cc1ccc(Cl)cc1Cl)/C(=C(\F)CNC(=O)NS(=O)(=O)c1cc(Cl)c(Cl)s1)COC2 [Compound #189, (E)-4,5-dichloro-N-((2-(3-(2,4-dichlorobenzyl)-2-methyl-2,7-dihydropyrano[3,4-c]pyrazol-4(5H)-ylidene)-2-fluoroethyl)carbamoyl)thiophene-2-sulfonamide]
17 | 1 | Cc1cc(S(=O)(=O)NC(=O)NC/C(F)=C2\COCc3[nH]nc(Cc4ccc(Cl)cc4Cl)c32)sc1Cl [Compound #190, (E)-5-chloro-N-((2-(3-(2,4-dichlorobenzyl)-1,7-dihydropyrano[3,4-c]pyrazol-4(5H)-ylidene)-2-fluoroethyl)carbamoyl)-4-methylthiophene-2-sulfonamide]
18 | 15 | O=C(NC/C(F)=C1\CCCc2cnn(Cc3cnn(-c4ccccc4)c3)c21)NS(=O)(=O)c1cc(Cl)c(Cl)s1 [Compound #191, (Z)-4,5-dichloro-N-((2-fluoro-2-(1-((1-phenyl-1H-pyrazol-4-yl)methyl)-1,4,5,6-tetrahydro-7H-indazol-7-ylidene)ethyl)carbamoyl)thiophene-2-sulfonamide]
19 | 6 | Cc1cc(S(=O)(=O)NC(=O)NC/C=C2\CCCc3cnn(Cc4ccc(Cl)cc4Cl)c32)n(C)n1 [Compound #192, (E)-N-((2-(1-(2,4-dichlorobenzyl)-1,4,5,6-tetrahydro-7H-indazol-7-ylidene)ethyl)carbamoyl)-1,3-dimethyl-1H-pyrazole-5-sulfonamide]
20 | 75 | Cc1cc(S(=O)(=O)NC(=O)NC/C(F)=C2\CCCc3cnn(Cc4ccc(Cl)cc4Cl)c32)n(C)n1 [Compound #193, (Z)—N-((2-(1-(2,4-dichlorobenzyl)-1,4,5,6-tetrahydro-7H-indazol-7-ylidene)-2-fluoroethyl)carbamoyl)-1,3-dimethyl-1H-pyrazole-5-sulfonamide]
21 | 25 | Cn1ncc2ccc(S(=O)(=O)NC(=O)NC/C(F)=C3\CCCc4cnn(Cc5ccc(Cl)cc5Cl)c43)cc21 [Compound #194, (Z)—N-((2-(1-(2,4-dichlorobenzyl)-1,4,5,6-tetrahydro-7H-indazol-7-ylidene)-2-fluoroethyl)carbamoyl)-1-methyl-1H-indazole-6-sulfonamide]
22 | 45 | Cn1ncc2cc(S(=O)(=O)NC(=O)NC/C(F)=C3\CCCc4cnn(Cc5ccc(Cl)cc5Cl)c43)ccc21 [Compound #195, (Z)—N-((2-(1-(2,4-dichlorobenzyl)-1,4,5,6-tetrahydro-7H-indazol-7-ylidene)-2-fluoroethyl)carbamoyl)-1-methyl-1H-indazole-5-sulfonamide]

Same assay, conditions: unit nM

Row | Ki [nM] | SMILES
23 | 0.4 | COc1ccc(S(=O)(=O)NC(=O)NC/C(F)=C2\CCCc3[nH]nc(Cc4ccc(Cl)cc4Cl)c32)cc1Cl [Compound #179, (Z)-3-chloro-N-((2-(3-(2,4-dichlorobenzyl)-1,5,6,7-tetrahydro-4H-indazol-4-ylidene)-2-fluoroethyl)carbamoyl)-4-methoxybenzenesulfonamide]
